Square brackets hold non-standard residues; d marks the D form. Ends that are not written are not given here. Peptide text beside a SMILES is read from it. hSer = N[C@@H](CCO)C(=O)O
How the values were obtained:
Bacillus megaterium [1] = settings: from the literature; cited from earlier work
P. aeruginosa = assay: Agar-well halo assay of bactericidal activity; assay type: cell-based, Pseudomonas aeruginosa; settings: overnight incubation at 25° C.
Description: (§1) The assay for antimicrobial activity was performed by pouring 10 ml of agar in TYE media containing about 10^7 viable cells of the test organisms. Wells, 2 mm in diameter, were punched in the agar plates. Aliquots of the modified cecropin-like polypeptides (2-12 ul) were then added to each well. The diameter of the inhibition zones, or haloes, around the wells, were measured after overnight incubation at 25° C.
(§2) The activities of various cecropin-like polypeptides were tested against both Gram-negative and Gram-positive organisms. Anti-microbial activity against the Gram-negative organisms remained unaltered for most of the Gram-negative bacteria (except, i.e., Serratia marcescens) as shown in Table 1. […] To determine a standard of halo formation, the various modified cecropin-like polypeptides were also applied to E. coli D21. Activity shown in Tables 1 and 2 is expressed as the ratio of the radius of the cleared halo for each organism versus that for E. coli D21.

E. cloacae = assay: Agar-well halo assay of bactericidal activity; assay type: cell-based; settings: overnight incubation at 25° C.
Description: as §1, §2

Micrococcus luteus = assay: Agar-well halo assay of bactericidal activity; assay type: cell-based; settings: for Relative activity (ratio of the radius of the cleared halo versus that for E. coli D21): M. luteus, overnight incubation at 25° C.
Description: as §1, §2
(§3) The cecropin-like polypeptide modified at the carboxy terminus with ethylenediamine and naturally occurring cecropin A were tested against a variety of organisms. The relative activities of the antimicrobial agents were expressed per nanomole of polypeptide applied to each well (Table 3).

Bacillus megaterium [2] = assay: Agar-well halo assay of bactericidal activity; assay type: cell-based; settings: for Relative activity (ratio of the radius of the cleared halo versus that for E. coli D21): B. megaterium, overnight incubation at 25° C.
Description: as §1, §2, §3

Streptococcus faecalis = assay: Agar-well halo assay of bactericidal activity; assay type: cell-based; settings: for Relative activity (ratio of the radius of the cleared halo versus that for E. coli D21): S. faecalis, overnight incubation at 25° C.
Description: as §1, §2, §3

B. subtilis = assay: Agar-well halo assay of bactericidal activity; assay type: cell-based, Bacillus subtilis; settings: for Relative activity (ratio of the radius of the cleared halo versus that for E. coli D21): B. subtilis, overnight incubation at 25° C.
Description: as §1, §2, §3

S. typhimurium = assay: Agar-well halo assay of bactericidal activity; assay type: cell-based, Salmonella typhimurium; settings: overnight incubation at 25° C.
Description: as §1, §2

E. coli MC1061 = assay: Agar-well halo assay of bactericidal activity; assay type: cell-based, Escherichia coli; settings: overnight incubation at 25° C.
Description: as §1, §2

Escherichia coli = assay: Agar-well halo assay, activity per nanomole; assay type: cell-based; settings: per nanomole of polypeptide applied to each well
Description: as §1, §3

| Molecule | Sensitivity of Bacillus megaterium to the cecropin (Bacillus megaterium [1]) | Relative activity (ratio of the radius of the cleared halo versus that for E. coli D21) (P. aeruginosa) | Relative activity (ratio of the radius of the cleared halo versus that for E. coli D21) (E. cloacae) | Relative activity (ratio of the radius of the cleared halo versus that for E. coli D21) (Micrococcus luteus) | Relative activity (ratio of the radius of the cleared halo versus that for E. coli D21) (Bacillus megaterium [2]) | Relative activity (ratio of the radius of the cleared halo versus that for E. coli D21) (Streptococcus faecalis) | Relative activity (ratio of the radius of the cleared halo versus that for E. coli D21) (B. subtilis) | Relative activity (ratio of the radius of the cleared halo versus that for E. coli D21) (S. typhimurium) | Relative activity (ratio of the radius of the cleared halo versus that for E. coli D21) (E. coli MC1061) | Activity per Nanomole (radius of the inhibitory ring) (Micrococcus luteus; Micrococcus luteus, per nanomole of polypeptide applied to each well) [millimeters] | Activity per Nanomole (radius of the inhibitory ring) (Bacillus megaterium [2]; Bacillus megaterium, per nanomole of polypeptide applied to each well) [millimeters] | Activity per Nanomole (radius of the inhibitory ring) (Streptococcus faecalis; Streptococcus faecalis, per nanomole of polypeptide applied to each well) [millimeters] | Activity per Nanomole (radius of the inhibitory ring) (B. subtilis; Bacillus subtilus, per nanomole of polypeptide applied to each well) [millimeters] | Activity per Nanomole (radius of the inhibitory ring) (Escherichia coli) [millimeters] |
| --- | --- | --- | --- | --- | --- | --- | --- | --- | --- | --- | --- | --- | --- | --- |
| cecropin D | relatively resistant | – | – | – | – | – | – | – | – | – | – | – | – | – |
| CC[C@H](C)[C@H](NC(=O)CNC(=O)[C@H](CC(=O)O)NC(=O)[C@H](CCCNC(=N)N)NC(=O)[C@@H](NC(=O)[C@H](CC(N)=O)NC(=O)[C@H](CCC(N)=O)NC(=O)CNC(=O)[C@@H](NC(=O)[C@H](CCCCN)NC(=O)[C@H](CCC(=O)O)NC(=O)[C@@H](NC(=O)[C@H](CCCCN)NC(=O)[C@H](CCCCN)NC(=O)[C@H](Cc1ccccc1)NC(=O)[C@H](CC(C)C)NC(=O)[C@H](CCCCN)NC(=O)[C@H](Cc1c[nH]c2ccccc12)NC(=O)[C@@H](N)CCCCN)[C@@H](C)CC)C(C)C)[C@@H](C)CC)C(=O)N[C@H](C(=O)N[C@@H](CCCCN)C(=O)N[C@@H](C)C(=O)NCC(=O)N1CCC[C@H]1C(=O)N[C@@H](C)C(=O)N[C@H](C(=O)N[C@@H](C)C(=O)N[C@H](C(=O)N[C@H](C(=O)NCC(=O)N[C@@H](CCC(N)=O)C(=O)N[C@@H](C)C(=O)N[C@H](C(=O)N[C@@H](CCC(N)=O)C(=O)N[C@H](C(=O)N[C@@H](C)C(=O)N[C@@H](CCCCN)C(=O)N[C@@H](CCO)C(=O)O)[C@@H](C)CC)[C@@H](C)O)C(C)C)C(C)C)C(C)C)[C@@H](C)CC [CA-HS-COOH] (H-KWKLFKKIEKVGQNIRDGIIKAGPAVAVVGQATQIAK[hSer]-OH) | – | 0.76 | 0.79 | 0.1 ± 0.1 | 0.5 | 0 | 0 | 1.07 | 0.86 | – | – | – | – | – |
| KWKLFKKIEKVGQNIRDGIIKAGPAVAVVGQATQIAK-NH2 [CA-NH2, cecropin A, reference compound] | highly sensitive | 0.70 | 0.92 | 1.2 ± 0.2 | 0.7 | 0 | 0.1 ± 0.05 | 1.06 | 0.80 | 6.1 | 5.1 | < 0.5 | < 0.5 | 6.1 |
| CC[C@H](C)[C@H](NC(=O)CNC(=O)[C@H](CC(=O)O)NC(=O)[C@H](CCCNC(=N)N)NC(=O)[C@@H](NC(=O)[C@H](CC(N)=O)NC(=O)[C@H](CCC(N)=O)NC(=O)CNC(=O)[C@@H](NC(=O)[C@H](CCCCN)NC(=O)[C@H](CCC(=O)O)NC(=O)[C@@H](NC(=O)[C@H](CCCCN)NC(=O)[C@H](CCCCN)NC(=O)[C@H](Cc1ccccc1)NC(=O)[C@H](CC(C)C)NC(=O)[C@H](CCCCN)NC(=O)[C@H](Cc1c[nH]c2ccccc12)NC(=O)[C@@H](N)CCCCN)[C@@H](C)CC)C(C)C)[C@@H](C)CC)C(=O)N[C@H](C(=O)N[C@@H](CCCCN)C(=O)N[C@@H](C)C(=O)NCC(=O)N1CCC[C@H]1C(=O)N[C@@H](C)C(=O)N[C@H](C(=O)N[C@@H](C)C(=O)N[C@H](C(=O)N[C@H](C(=O)NCC(=O)N[C@@H](CCC(N)=O)C(=O)N[C@@H](C)C(=O)N[C@H](C(=O)N[C@@H](CCC(N)=O)C(=O)N[C@H](C(=O)N[C@@H](C)C(=O)N[C@@H](CCCCN)C(=O)N[C@@H](CCO)C(N)=O)[C@@H](C)CC)[C@@H](C)O)C(C)C)C(C)C)C(C)C)[C@@H](C)CC [CA-HS-CONH2] (H-KWKLFKKIEKVGQNIRDGIIKAGPAVAVVGQATQIAK[hSer]-NH2) | – | 0.71 | 0.86 | 1.4 ± 0.2 | 0.4 | 0 | 0.06 ± 0.06 | 1.09 | 0.81 | – | – | – | – | – |
| KWKLFKKIEKVGQNIRDGIIKAGPAVAVVGQATQIAK [CA-COOH] | – | 0.70 | 0.84 | 0 | 0.2 | 0 | 0 | 1.09 | 0.84 | – | – | – | – | – |
| cecropin B (KWKVFKKIEKMGRNIRNGIVKAGPAIAVLGEAKAL; ends and bridges not checked; UniProt P01508 27-61, looked up) [major natural antibacterial peptide purified from immune hemolymph] | highly sensitive | – | – | – | – | – | – | – | – | – | – | – | – | – |

Source: patent US5166321A, “Cecropin polypetides with activity against Gram-positive and Gram-negative bacteria” (International Genetic Engineering, Inc., priority 1987, dated 1992)
